Test results: patent US10815276B2, “Cell penetrating peptides and methods of making and using thereof” (Entrada Therapeutics, Inc., priority 2014, dated 2020)
Several values for one entry are separate records, joined by “and”; a condition that tells them apart may be missing. Equal values may be shown once. Read-outs that look alike come from different tables or passages of the source. Starred links: 1 amine or outer side, 2 acyl side, 3 side chain; linkers in the order of their positions; H or OH if unused. Positions of bridges follow the written chain, without caps; N, C: chain ends. Non-standard residues stand in square brackets, D forms with d. Residues, ends and D or L forms follow the SMILES beside them. *: point of attachment. RhodamineB = CCN(CC)c1ccc2c(-c3ccccc3C(=O)*)c3ccc(=[N+](CC)CC)cc-3oc2c1; Trimesoyl = O=C(c1cc(C(=O)[*:2])cc(C(=O)[*:3])c1)[*:1]; 2Nal = N[C@@H](Cc1ccc2ccccc2c1)C(=O)O; Pip = O=C(O)[C@@H]1CCCCN1; Dap = NC[C@H](N)C(=O)O; Sar = CNCC(=O)O

Legend:
Aqueous solubility = format: physicochemical
[1] = Serum stability test (25% human serum); format: in vitro ADME; conditions: 37° C.
Procedure: The stability tests were carried by modifying a previously reported procedure (Nguyen, L T et al. […] At various time points (0-6 h), 200-μL aliquots were withdrawn and mixed with 50 μl of 15% trichloroacetic acid and incubated at 4° C. overnight. The final mixture was centrifuged at 15,000 rpm for 10 min in a microcentrifuge, and the supernatant was analyzed by reversed-phase HPLC equipped with a C18 column (Waters). The amount of remaining peptide (%) was determined by integrating the area underneath the peptide peak (monitored at 214 nm) and compared with that of the control reaction (no serum).

PTP1B = molecular target: T1, PTP1B (Homo sapiens, UniProt P18031); assay: PTP inhibition assay (pNPP); format: biochemical; conditions: pNPP 0-24 mM; read-out: K1 (competitive inhibition constant)
T1 construct: The gene coding for the catalytic domain of PTP1B (amino acids 1-321) was amplified; made in house; host or cells: prokaryotic vector pET-22b(+)-ybbR
T1 sequence (P18031 1-321): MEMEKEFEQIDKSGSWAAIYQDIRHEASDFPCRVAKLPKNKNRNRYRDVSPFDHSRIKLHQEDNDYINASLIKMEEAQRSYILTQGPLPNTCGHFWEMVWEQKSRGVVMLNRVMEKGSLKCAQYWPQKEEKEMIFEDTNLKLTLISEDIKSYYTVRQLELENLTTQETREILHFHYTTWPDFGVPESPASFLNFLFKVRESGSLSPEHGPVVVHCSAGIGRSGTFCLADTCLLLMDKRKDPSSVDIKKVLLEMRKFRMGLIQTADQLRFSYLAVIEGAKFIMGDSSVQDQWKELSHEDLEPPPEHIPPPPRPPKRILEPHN
Procedure: PTP assays were performed in a quartz microcuvette (total volume 150 μL). The reaction mixture contains 100 mM Tris-HCl, pH 7.4, 50 mM NaCl, 2 mM EDTA, 1 mM TCEP, 0-1 μM of PTP inhibitor, and 500 μM para-nitrophenyl phosphate (pNPP). The enzymatic reaction was initiated by the addition of PTP (final concentration 15-75 nM) and monitored continuously at 405 nm on a UV-VIS spectrophotometer. Initial rates were calculated from the reaction progress curves (typically <60 s). The half-maximal inhibition constant (IC50) was defined as the concentration of an inhibitor that reduced the enzyme activity to 50% and was obtained by plotting the rates (V) against the inhibitor concentration [I] and fitting the data against the equation
[formula] where V0 is the enzymatic reaction rate in the absence of inhibitor. […] The reaction rate (V) was plotted against the pNPP concentration ([S]) and fitted against the equation
[formula] to obtain the Michaelis constant K. The Ki value was obtained by plotting the K values against the inhibitor concentration [I] and fitted to equation
[formula] where K0 is the Michaelis constant in the absence of inhibitor ([I]=0).

Pin1 [2] = molecular target: T2, Pin1 (Homo sapiens, UniProt Q13526, S16A/Y23A); assay: Pin1 binding by FA (FITC-labeled peptides); conditions: FITC-labeled peptide, FA; read-out: KD
T2 construct: The full-length human S16A/Y23A mutant Pin1 was expressed and purified from E. coli; made in house
T2 sequence (Q13526 whole entry S16A/Y23A): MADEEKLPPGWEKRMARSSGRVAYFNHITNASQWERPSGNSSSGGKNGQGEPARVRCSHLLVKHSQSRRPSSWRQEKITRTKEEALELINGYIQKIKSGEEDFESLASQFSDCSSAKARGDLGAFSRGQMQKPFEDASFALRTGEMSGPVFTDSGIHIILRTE

Pin1 [3] = molecular target: T2, Pin1; assay: Fluorescence anisotropy binding to Pin1
Procedure: The gene coding for the catalytic domain of PTP1B (amino acids 1-321) was amplified by the polymerase chain reaction using PTP1B cDNA as template and oligonucleotides 5′-[…]-3′ and 5′-[…]-3′ as primers. […] Expression and purification of the ybbR-tagged PTP1B were carried out as previously described (Ren, L et al. Biochemistry 2011, 50, 2339-2356). […] The reaction mixture was passed through a G-25 fast-desalting column equilibrated in 30 mM HEPES, pH 7.4, 150 mM NaCl to remove any free dye molecules. The full-length human S16A/Y23A mutant Pin1 was expressed and purified from E. coli as previously described (Liu, T et al. J. Med. Chem. 2010, 53, 2494-2501).
FA experiments were carried out by incubating 100 nM FITC-labeled peptide with varying concentrations of protein in 20 mM HEPES (pH 7.4), 150 mM NaCl, 2 mM magnesium acetate, and 0.1% bovine serum albumin (BSA) for 2 h at room temperature. The FA values were measured on a Molecular Devices Spectramax M5 plate reader, with excitation and emission wavelengths at 485 and 525 nm, respectively. Equilibrium dissociation constants (KD) were determined by plotting the FA values as a function of protein concentration and fitting the curve to the following equation:
[formula] where Y is the FA value at a given protein concentration x, L is the peptide concentration, Qb/Qf is the correction factor for fluorophore-protein interaction, Amax is the maximum FA value when all of the peptides are bound to protein, while Amin is the minimum FA value when all of the peptides are free. FA competition assay was performed by incubating 100 nM FITC-labeled Pin1 inhibitor 5 with 1 μM Pin1, followed by the addition of 0-5 μM unlabeled inhibitor. The FA values were measured similarly on a pate reader. IC50 values were obtained by plotting the FA values against the competitor concentration and curve fitting using the four-parameter dose-response inhibition equation (Prism 6, GraphPad).

HeLa cells [4] = assay: FACS uptake of FITC-labeled peptides; format: cell-based, human; conditions: 5 μM, 2 h
pKa of CAP fluorophore = format: physicochemical; conditions: deprotonated state fluorescent
mammalian cells = conditions: Qian et al. 2013; cited from earlier work
[5] = tested on: SUV2 (vesicles that mimic the negatively charged endosomal membrane of mammalian cells); assay: Fluorescence polarization membrane binding, SUV2
Description: (§1) Also discussed herein are the CPP sequences in Table 16. All uptake/delivery efficiencies are in Table 17 are relative to that of cFΦR4 (290-1F, 100%). SUV1 are small unilamellar vesicles that mimic the neutral outer membrane of mammalian cells [45% phosphatidylcholine (PC), 20% phosphatidylethanolamine (PE), 20% sphingomyelin (SM), and 15% cholesterol (CHO)]. SUV2 are small unilamellar vesicles that mimic the negatively charged endosomal membrane of mammalian cells [50% PC, 20% PE, 10% phosphatidylinositol (PI), and 20% bis(monoacylglycerol)phosphate].
(§2) Measurements were carried out fluorescence polarization using FITC-labeled cyclic peptides against increasing concentrations of vesicles. Experiments were performed at pH 7.4 and 5.5 (pH inside late endosomes).

[6] = tested on: HEK293, MCF-7, A549, H1650, and H1299; assay: MTT cytotoxicity assay; format: cell-based, human
Procedure: MTT assays were performed to evaluate cyclic peptide's cytotoxicity against several mammalian cell lines (Mosmann, T. J. Immunol. Methods, 1983, 65, 55-63). One hundred μL of MCF-7, HEK293, H1299, H1650, A549 (1×10^5 cells/mL) cells were placed in each well of a 96-well culture plate and allowed to grow overnight. Varying concentrations of the peptide (5 or 50 μM) were added to the each well and the cells were incubated at 37° C. with 5% CO2 for 24 to 72 h. Ten μL of MTT stock solution was added into each well. Addition of 10 μL of the solution to the growth medium (no cell) was used as a negative control. The plate was incubated at 37° C. for 4 h. Then 100 μL of SDS-HCl solubilizing buffer was added into each well, and the resulting solution was mixed thoroughly. The plate was incubated at 37° C. for another 4 h. The absorbance of the formazan product was measured at 570 nm using a Molecular Devices Spectramax M5 plate reader. Each experiment was performed in triplicates and the cells without any peptide added were treated as control.

HeLa cells [7] = assay: Cytoplasmic delivery of pCAP-containing peptides, flow cytometry; conditions: pCAP-containing peptide as cargo
HeLa cells [8] = assay: Effect on endocytosis of dextran^Alexa488, flow cytometry; format: cell-based, human; conditions: 1 μM cFΦR4, 100 μM dextran^Alexa488, 30 min
Procedure: HeLa cells were treated with clear DMEM containing no supplement, 1 μM cFΦR4 only, 100 μM dextran^Alexa488 only, or both 1 μM cFΦR4 and 100 μM dextran^Alexa488. MFI, mean fluorescence intensity.
Following adherence, cells were treated with clear DMEM containing no supplement, 1 μM cFΦR4 peptide, 100 μM dextran^Alexa488 (Life Technologies, D-22910), or both 1 μM cyclic peptide and 100 μM dextran^Alexa488 for 30 min under standard cell culture conditions. The cells were washed with DPBS twice, removed from the plate with 0.25% trypsin, diluted into clear DMEM containing 10% FBS, pelleted at 300 g for 5 min, washed once with DPBS and resuspended in 200 μL of DPBS. Whole-cell dextran uptake was analyzed on a BD Accuri C6 flow cytometer using the manufacturer FL1 laser and filter set.

[9] = tested on: cell type (e.g., HeLa cells); assay: Cellular uptake efficiency of cyclic CPPs; format: cell-based; conditions: relative to cFΦR4 (290-1F, 100%)
Procedure: In particular embodiments, uptake efficiency is determined by comparing (i) the amount of a cyclic cell-penetrating peptide of the invention internalized by a cell type (e.g., HeLa cells) to (ii) the amount of c(FΦRRRRQ) (290-1F) internalized by the same cell type. To measure cellular uptake efficiency, the cell type may be incubated in the presence of a cell-penetrating peptide of the invention for a specified period of time (e.g., 30 minutes, 1 hour, 2 hours, etc.) after which the amount of the cell-penetrating peptide internalized by the cell is quantified. Separately, the same concentration of c(FΦRRRRQ) (290-1F) is incubated in the presence of the cell type over the same period of time, and the amount of the second peptide internalized by the cell is quantified. Quantification can be achieved by fluorescently labeling the cell-penetrating peptide (e.g., with a FTIC dye) and measuring the fluorescence intensity using techniques well-known in the art.
as §1

[10] = tested on: SUV1 (vesicles that mimic the neutral outer membrane of mammalian cells); assay: Fluorescence polarization membrane binding, SUV1
Description: as §1, §2

Compound: cyclo(FΦRRRRQ)-FFFF-K(Rho) (cyclo(F[2Nal]RRRRQFFFFK(RhodamineB)); not fully specified (C-terminus, bridges); printed as cyclo(FΦRRRRQ)-FFFF-K(Rho)) [cFΦR4-F4]
- Aqueous solubility (Aqueous solubility): poor

Compound: N=C(N)NCCC[C@H](NC(=O)[C@H](CCCNC(=N)N)NC(=O)[C@H](CCCNC(=N)N)NC(=O)[C@H](CCC(N)=O)NC(=O)[C@H](CCCNC(=N)N)NC(=O)[C@H](CCCNC(=N)N)NC(=O)[C@H](CCCCN)NC(=O)[C@H](CCCCN)NC(=O)[C@H](CCCNC(=N)N)NC(=O)CNC(=O)[C@@H](N)Cc1ccc(O)cc1)C(N)=O [Tat]
- half-life [1]: ~30 min

Compound: C[C@@H]1NC(=O)[C@H](CCCNC(=N)N)NC(=O)[C@H](Cc2ccc3ccccc3c2)NC(=O)[C@@H]2CCCCN2C(=O)[C@@H]([C@H](C)O)NC(=O)CN(C)C(=O)[C@@H](C)NC(=O)c2cc3cc(c2)C(=O)NC[C@H](NC(=O)[C@@H](C)NC1=O)C(=O)N[C@@H](Cc1ccccc1)C(=O)N[C@@H](Cc1ccc2ccccc2c1)C(=O)N[C@@H](CCCNC(=N)N)C(=O)N[C@@H](CCCNC(=N)N)C(=O)N[C@@H](CCCNC(=N)N)C(=O)N[C@@H](CCCNC(=N)N)C(=O)N[C@H](C(=O)N[C@@H](CCCCN)C(N)=O)CNC3=O [Peptide 2, bicyclo[Tm-(D-Ala-Sar-D-Thr-Pip-Nal-Arg-Ala-D-Ala)-Dap-(Phe-Nal-Arg-Arg-Arg-Arg-Dap)]-Lys] ([dA][Sar][dT][Pip][2Nal]RA[dA][Dap]F[2Nal]RRRR[Dap]K-NH2; linker N-9-16 via Trimesoyl)
- Ki (PTP1B): 0.054 µM
- Kd (Pin1 [2]): 0.62 µM
- Reduction of potency vs inhibitor 7 (Pin1 [3]): ~10 fold

Compound: fluorescein isothiocyanate [FITC, reference compound]
- Mean fluorescence intensity (MFI), total intracellular FITC fluorescence (HeLa cells [4]): 1200 arbitrary units (AU)

Compound: NC(Cc1cc(=O)oc2cc(O)ccc12)C(=O)O (stereo not drawn) [CAP, coumaryl aminopropionic acid]
- pKa (pKa of CAP fluorophore): 7.8

Compound: N=C(N)NCCC[C@H](NC(=O)[C@H](CCCNC(=N)N)NC(=O)[C@H](CCCNC(=N)N)NC(=O)[C@H](CCCNC(=N)N)NC(=O)[C@H](CCCNC(=N)N)NC(=O)[C@H](CCCNC(=N)N)NC(=O)[C@H](CCCNC(=N)N)NC(=O)[C@H](CCCNC(=N)N)NC(=O)[C@@H](N)CCCNC(=N)N)C(N)=O [Peptide R9]
- half-life at 50 μM [1]: ~30 min

Compound: N=C(N)NCCC[C@@H]1NC(=O)[C@H](CCCNC(=N)N)NC(=O)[C@H](CCCNC(=N)N)NC(=O)[C@H](Cc2ccc3ccccc3c2)NC(=O)[C@H](Cc2ccccc2)NC(=O)[C@H](CCC(N)=O)NC(=O)[C@H](CCCNC(=N)N)NC1=O [cFΦR4, cyclo(FΦRRRRQ)] (cyclo(F[2Nal]RRRRQ))
- Efficiency of entering cytoplasm and nucleus higher than nonaarginine (R9) (mammalian cells): 2-5 fold
- Kd ([5]; pH 5.5, read-out: Membrane Binding KD (mM) SUV2 pH 5.5): 0.63 mM
- Kd ([5]; pH 7.4, read-out: Membrane Binding KD (mM) SUV2 pH 7.4): 0.66 mM
- Growth inhibition after 72 h ([6]; 50 μM): up to 20%
- Growth inhibition after 24 or 48 h ([6]; up to 50 μM): no significant growth inhibition
- Delivery efficiency higher than R9, Antp, and Tat (HeLa cells [7]): 4-12 fold and 3.7-12 fold
- Increase in internalization of dextran^Alexa488 (HeLa cells [8]): 15%
- Uptake Efficiency (%) [9]: 100%
- Kd ([10]; pH 5.5, read-out: Membrane Binding KD (mM) SUV1 pH 5.5): 1.1 mM
- Kd ([10]; pH 7.4, read-out: Membrane Binding KD (mM) SUV1 pH 7.4): 4 mM
